Data reported in publication PMC9667776 (RSC Medicinal Chemistry, 2022).

Legend:
2-epimerase = format: binding, B. anthracis
PAK4 = PAK4 (Homo sapiens, UniProt O96013, L310A); format: binding
PAK4, sequence (O96013 300-591 L310A limits assumed): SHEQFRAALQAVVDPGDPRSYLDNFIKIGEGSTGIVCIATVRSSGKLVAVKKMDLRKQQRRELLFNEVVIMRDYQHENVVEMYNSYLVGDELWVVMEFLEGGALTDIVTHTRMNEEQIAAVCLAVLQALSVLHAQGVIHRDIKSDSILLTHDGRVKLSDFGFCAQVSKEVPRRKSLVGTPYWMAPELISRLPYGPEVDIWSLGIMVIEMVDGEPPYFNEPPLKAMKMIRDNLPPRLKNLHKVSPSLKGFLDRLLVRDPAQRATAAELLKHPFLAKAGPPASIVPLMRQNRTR

| Structure (SMILES) | competition with UDP-GlcNAc by LO-NMR (2-epimerase) | binding by competitive LO-NMR (PAK4) |
| --- | --- | --- |
| O=S(=O)(CCCn1cc(CCNS(=O)(=O)c2ccc(Br)cc2Cl)nn1)Nc1ccc(Nc2ccc(C(F)(F)F)nn2)cc1 [compound 4] | competitive with UDP-GlcNAc |  |
| CNC(=O)c1cnn2ccc(C#N)cc12 [compound 5] |  | consistent with binding to the ATP-binding site |
